Data reported in publication PMC9896412, “The role of invariant surface glycoprotein 75 in xenobiotic acquisition by African trypanosomes” (Microbial Cell, 2023).

How the values were obtained:
[1] = molecular target: T1, invariant surface glycoprotein 75 (ISG75) (Trypanosoma brucei, UniProt Q1WK95); test: ITC (tag-free protein from S2 cells); assay type: binding
[2] = molecular target: T1, invariant surface glycoprotein 75 (ISG75); test: biochemical

Cc1cc(-c2ccc(/N=N/c3c(S(=O)(=O)O)cc4cc(S(=O)(=O)O)cc(N)c4c3O)c(C)c2)ccc1/N=N/c1c(S(=O)(=O)O)cc2cc(S(=O)(=O)O)cc(N)c2c1O [trypan blue]
Kd [1]: 600 nM

Cc1ccc(C(=O)Nc2ccc(S(=O)(=O)O)c3cc(S(=O)(=O)O)cc(S(=O)(=O)O)c23)cc1NC(=O)c1cccc(NC(=O)Nc2cccc(C(=O)Nc3cc(C(=O)Nc4ccc(S(=O)(=O)O)c5cc(S(=O)(=O)O)cc(S(=O)(=O)O)c45)ccc3C)c2)c1 [suramin]
Kd [2]: 3200 nM
